Literature values, collected in patent publication US12150970B2, “Composition for treatment of topical dermatological bacterial skin conditions” (ALPHYN BIOLOGICS, INC., priority 2021, dated 2024).

Test system: cells
Details: compounds evaluated by Chen

Row | Compound | effect on cell proliferation / healing (in words)
1 | epicatechin | little effect
2 | epigallocatechin | slightly stimulating to cell proliferation
3 | COc1ccc([C@H]2Oc3c(OC)cc(CCCO)cc3[C@@H]2CO)cc1OC [dimethylcedrusin] | little healing effects
4 | Oc1cc(O)c2c(c1)O[C@H](c1ccc(O)c(O)c1)[C@@H](O)C2 [Catechin, catechin] | little effect
5 | Oc1cc(O)c2c(c1)O[C@H](c1cc(O)c(O)c(O)c1)[C@@H](O)C2 [Gallocatechin, gallocatechin] | slightly stimulating to cell proliferation
6 | COc1ccc2c(=O)oc3c(OC)cc(CCN(C)C)c4c(=O)oc1c2c34 [Taspine, taspine] | little healing effects
